Measured values taken from ChEMBL document CHEMBL3885861, “Open TG-GATES”.

Species on record: Rattus norvegicus
Assay: Open TG-GATES - Regimen: Single
Assay type: toxicity, organism-based, Sprague-Dawley
Design: regimen Single, gender Male, age 6 weeks
Details: in vivo, ip, 300 mg/kg, route intraperitoneal injection, dose level Middle; for APTT / Bas / Eos / Fbg / Hb / Ht / Lym / MCH / MCHC / MCV / Mono / Neu / PT / Plat / RBC / Ret / WBC: tissue Blood; for KIDNEY_L / KIDNEY_R / KIDNEY_TOTAL: tissue Kidney; for LIVER: tissue Liver; for A/G / ALP / ALT / AST / BUN / CRE / Ca / Cl / DBIL / GLC / IP / K / LDH / Na / PL / RALB / TBIL / TC / TG / TP / gamma-GTP: tissue Plasma

## N[C@H]1C(O)O[C@H](CO)[C@@H](O)[C@@H]1O (some centres not stated) [GLUCOSAMINE]
3 h
  TERMINAL_BW: 188.6 g
  APTT: 17.5 s
  Bas: 0.4%
  Eos: 0.4%
  Fbg: 247.4 mg/dL
  Hb: 12.6 g/dL
  Ht: 38.9%
  Lym: 67%
  MCH: 21 pg
  MCHC: 32.3%
  MCV: 64.9 fL
  Mono: 4%
  Neu: 27%
  PT: 16.2 s
  Plat: 112.1 x10_4/uL
  RBC: 600.6 x10_4/ul
  Ret: 9.4%
  WBC: 96.7 x10_2/uL
  KIDNEY_L: 0.9 g
  KIDNEY_R: 0.9 g
  KIDNEY_TOTAL: 1.8 g
  LIVER: 8.4 g
  A/G: 0.9
  ALP: 1578.8 IU/L
  ALT: 43.4 IU/L
  AST: 82 IU/L
  BUN: 10.6 mg/dL
  CRE: 0.2 mg/dL
  Ca: 10.5 mg/dL
  Cl: 107.8 meq/L
  DBIL: 0.012 mg/dL
  GLC: 165.8 mg/dL
  IP: 8.9 mg/dL
  K: 4 meq/L
  LDH: 55.6 IU/L
  Na: 142.2 meq/L
  PL: 136.4 mg/dL
  RALB: 2.3 g/dL
  TBIL: 0.052 mg/dL
  TC: 76.6 mg/dL
  TG: 34.8 mg/dL
  TP: 5 g/dL
  gamma-GTP: 1 IU/L
6 h
  TERMINAL_BW: 188.8 g
  APTT: 20.1 s
  Bas: 0.2%
  Eos: 1%
  Fbg: 234.4 mg/dL
  Hb: 13.6 g/dL
  Ht: 41.5%
  Lym: 63%
  MCH: 21.3 pg
  MCHC: 32.7%
  MCV: 65.2 fL
  Mono: 2.6%
  Neu: 32.6%
  PT: 18.9 s
  Plat: 107.5 x10_4/uL
  RBC: 636.8 x10_4/ul
  Ret: 9%
  WBC: 50.8 x10_2/uL
  KIDNEY_L: 0.8 g
  KIDNEY_R: 0.8 g
  KIDNEY_TOTAL: 1.6 g
  LIVER: 8.4 g
  A/G: 0.9
  ALP: 1576.2 IU/L
  ALT: 145.8 IU/L
  AST: 213.4 IU/L
  BUN: 13.8 mg/dL
  CRE: 0.2 mg/dL
  Ca: 10.2 mg/dL
  Cl: 107.2 meq/L
  DBIL: 0.01 mg/dL
  GLC: 164.4 mg/dL
  IP: 9 mg/dL
  K: 3.7 meq/L
  LDH: 212.6 IU/L
  Na: 142.4 meq/L
  PL: 129.8 mg/dL
  RALB: 2.3 g/dL
  TBIL: 0.054 mg/dL
  TC: 70 mg/dL
  TG: 17.8 mg/dL
  TP: 4.9 g/dL
  gamma-GTP: 1 IU/L
9 h
  TERMINAL_BW: 183.2 g
  APTT: 18.5 s
  Bas: 0%
  Eos: 0.6%
  Fbg: 307.6 mg/dL
  Hb: 12.7 g/dL
  Ht: 39%
  Lym: 73%
  MCH: 21.1 pg
  MCHC: 32.6%
  MCV: 64.7 fL
  Mono: 1.8%
  Neu: 23.6%
  PT: 17.2 s
  Plat: 109.8 x10_4/uL
  RBC: 602.8 x10_4/ul
  Ret: 9.2%
  WBC: 55.1 x10_2/uL
  KIDNEY_L: 0.9 g
  KIDNEY_R: 0.9 g
  KIDNEY_TOTAL: 1.7 g
  LIVER: 7.3 g
  A/G: 0.9
  ALP: 1464 IU/L
  ALT: 40.6 IU/L
  AST: 84.4 IU/L
  BUN: 7.6 mg/dL
  CRE: 0.1 mg/dL
  Ca: 10.3 mg/dL
  Cl: 107.4 meq/L
  DBIL: 0.012 mg/dL
  GLC: 162.2 mg/dL
  IP: 9.9 mg/dL
  K: 3.8 meq/L
  LDH: 54.6 IU/L
  Na: 142 meq/L
  PL: 117.8 mg/dL
  RALB: 2.4 g/dL
  TBIL: 0.06 mg/dL
  TC: 63.4 mg/dL
  TG: 23.6 mg/dL
  TP: 5.2 g/dL
  gamma-GTP: 0.8 IU/L
24 h
  TERMINAL_BW: 190.9 g
  APTT: 19.9 s
  Bas: 0.6%
  Eos: 1.4%
  Fbg: 205.8 mg/dL
  Hb: 14.1 g/dL
  Ht: 43.4%
  Lym: 70%
  MCH: 20.9 pg
  MCHC: 32.5%
  MCV: 64.3 fL
  Mono: 3.8%
  Neu: 23%
  PT: 25.4 s
  Plat: 102.4 x10_4/uL
  RBC: 675.6 x10_4/ul
  Ret: 7.9%
  WBC: 79.5 x10_2/uL
  KIDNEY_L: 0.8 g
  KIDNEY_R: 0.9 g
  KIDNEY_TOTAL: 1.7 g
  LIVER: 8.1 g
  A/G: 0.9
  ALP: 2031.4 IU/L
  ALT: 214.6 IU/L
  AST: 341.6 IU/L
  BUN: 13.4 mg/dL
  CRE: 0.2 mg/dL
  Ca: 10.3 mg/dL
  Cl: 107 meq/L
  DBIL: 0.068 mg/dL
  GLC: 165.4 mg/dL
  IP: 9.1 mg/dL
  K: 4.3 meq/L
  LDH: 168 IU/L
  Na: 143.8 meq/L
  PL: 118.2 mg/dL
  RALB: 2.4 g/dL
  TBIL: 0.1 mg/dL
  TC: 57.2 mg/dL
  TG: 42 mg/dL
  TP: 5.2 g/dL
  gamma-GTP: 1 IU/L
